Data taken from patent publication US20090062150A1, “COMPOSITIONS AND METHODS FOR REGULATING INTRAMEMBRANE PROTEASES” (priority 2006, published 2009).

Key:
rhomboid protease = conditions: qualitative statement; cited from earlier work
[1] = molecular target: T1, truncated GlpG transmembrane core domain (Escherichia coli, UniProt P09391); assay: In vitro protease activity assay of GlpG core domain; type: biochemical, E. coli; conditions: for inhibition of GlpG by other detergents: wide range of concentrations up to several times their CMCs, data not shown
T1 construct: The transmembrane core domain of GlpG (residues 87-276) was purified as described previously; made in house
Experimental: Structural characterization of E. coli rhomboid protease, GlpG, was carried out using an N-terminally truncated GlpG transmembrane core domain (residues 87-276). In vitro characterization of the enzymatic activity of the truncated GlpG was reconstituted to validate the use of the GlpG core domain for crystallographic studies was carried out using two separate assays. Proteolytic activity of purified truncated GlpG core domain on an artificial protein substrate in detergent micelles was analyzed at 37° C. […] Proteolytic activity of purified truncated GlpG core domain was also compared with full length GlpG using C100-Spitz-Flag as substrate.
Combinatorial library technology provides an efficient way of testing a potentially vast number of different substances for their ability to modulate the activity of a rhomboid protease. In some embodiments, test substances may be screened for their ability to interact with the rhomboid protease in an enzymatic assay. For example, in one such enzymatic assay an artificial protein substrate, such as, for example, a membrane: associated protein, such as, CED-4, or C100-Spitz-Flag may be contacted with a rhomboid protease, such as GlpG. Cleavage products may then be analyzed by, for example, sodium dodecyl-sulfate polyacrylamide gel electrophoresis (SDS-PAGE). A test substance may be added to such an enzymatic, assay as a separate component, and modulation of the enzymatic activity of the rhomboid protease may be apparent by a reduction or enhancement of the amount or type of cleavage product. The modulation of activity may be indicative of binding of the test substance to the rhomboid protease.
The proteolytic activity of GlpG was examined as described by Wu et al.

[2] = molecular target: T1, truncated GlpG transmembrane core domain; conditions: qualitative statement, no data shown; cited from earlier work

T1 sequence (P09391 87-276): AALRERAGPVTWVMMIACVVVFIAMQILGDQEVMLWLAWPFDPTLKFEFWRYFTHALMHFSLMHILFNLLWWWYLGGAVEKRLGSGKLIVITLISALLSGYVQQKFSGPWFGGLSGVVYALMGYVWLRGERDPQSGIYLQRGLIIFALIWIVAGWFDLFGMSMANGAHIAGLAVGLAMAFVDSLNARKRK

Row | SMILES | inhibition of rhomboid activity (rhomboid protease) | specificity for rhomboid (rhomboid protease) | inhibition of GlpG by other detergents [1] | other results
1 | Cc1ccc(S(=O)(=O)N[C@@H](Cc2ccccc2)C(=O)CCl)cc1 [TPCK] | inhibit rhomboid activity | lack specificity | – | –
2 | CCCCCCCCCCCC[N+](C)(C)[O-] [LDAO] | – | – | no inhibition | –
3 | CCCCCCCCOCCOCCOCCOCCO [C8E4, tetraethyleneglycol monooctyl ether] | – | – | – | inhibition of enzymatic activity on artificial substrate ([1]; at concentrations above its critical micelle concentration (CMC), artificial substrate, FIG. 4A left panel): inhibit enzymatic activity; inhibition of proteolysis of C100-Spitz-Flag ([1]; substrate C100-Spitz-Flag, FIG. 4A right panel): inhibition is also observed
4 | O=c1oc(Cl)c(Cl)c2ccccc12 [DCI, Dichloroisocoumarin] | inhibit rhomboid activity | lack specificity | – | inhibition of GlpG [2]: relatively potent inhibition
5 | CCCCCCCCCO[C@@H]1O[C@H](CO)[C@@H](O)[C@H](O)[C@H]1O [nonyl glucoside] | – | – | no inhibition | –
